In ChEMBL document CHEMBL4270567, “Multi-target-directed ligands for treating Alzheimer's disease: Butyrylcholinesterase inhibitors displaying antioxidant and neuroprotective activities” (Eur J Med Chem, 2018):
The source made the active and inactive calls. No cut-off for these calls is given here.

Assays:
Cholinesterase [1] = target: T1, Cholinesterase (Homo sapiens, UniProt P06276); test: Inhibition of human recombinant BChE using butyrylthiocholine as substrate preincubated for 300 secs followed by substrate addition and measured for 1 min by Ellman's assay
T1 sequence (P06276 whole entry): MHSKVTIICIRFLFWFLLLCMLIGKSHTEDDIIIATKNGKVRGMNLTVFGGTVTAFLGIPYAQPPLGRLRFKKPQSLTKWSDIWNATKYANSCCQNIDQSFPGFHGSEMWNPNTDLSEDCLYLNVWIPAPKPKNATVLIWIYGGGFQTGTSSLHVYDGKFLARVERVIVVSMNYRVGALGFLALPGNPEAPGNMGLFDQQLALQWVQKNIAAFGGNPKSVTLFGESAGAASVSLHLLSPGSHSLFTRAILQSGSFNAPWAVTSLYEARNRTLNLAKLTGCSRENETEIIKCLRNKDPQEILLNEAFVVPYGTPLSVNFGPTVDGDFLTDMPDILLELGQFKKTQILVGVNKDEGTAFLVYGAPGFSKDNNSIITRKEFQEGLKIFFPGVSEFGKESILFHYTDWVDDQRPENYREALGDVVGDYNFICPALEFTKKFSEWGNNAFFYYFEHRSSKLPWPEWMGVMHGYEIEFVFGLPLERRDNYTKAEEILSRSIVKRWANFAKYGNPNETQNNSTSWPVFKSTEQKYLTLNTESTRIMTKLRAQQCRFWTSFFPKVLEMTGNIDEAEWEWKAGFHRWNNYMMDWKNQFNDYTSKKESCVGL

[2] = Binding affinity to Cu2+ assessed as decrease in hydroxyl radical formation at 40 uM by CCA ascorbate assay
[3] = target: Acetylcholinesterase (AChE) (Homo sapiens, UniProt P22303); test: in vitro; conditions: human AChE enzyme, probe acetylthiocholine iodide
Sequence of Acetylcholinesterase (AChE) (P22303 whole entry): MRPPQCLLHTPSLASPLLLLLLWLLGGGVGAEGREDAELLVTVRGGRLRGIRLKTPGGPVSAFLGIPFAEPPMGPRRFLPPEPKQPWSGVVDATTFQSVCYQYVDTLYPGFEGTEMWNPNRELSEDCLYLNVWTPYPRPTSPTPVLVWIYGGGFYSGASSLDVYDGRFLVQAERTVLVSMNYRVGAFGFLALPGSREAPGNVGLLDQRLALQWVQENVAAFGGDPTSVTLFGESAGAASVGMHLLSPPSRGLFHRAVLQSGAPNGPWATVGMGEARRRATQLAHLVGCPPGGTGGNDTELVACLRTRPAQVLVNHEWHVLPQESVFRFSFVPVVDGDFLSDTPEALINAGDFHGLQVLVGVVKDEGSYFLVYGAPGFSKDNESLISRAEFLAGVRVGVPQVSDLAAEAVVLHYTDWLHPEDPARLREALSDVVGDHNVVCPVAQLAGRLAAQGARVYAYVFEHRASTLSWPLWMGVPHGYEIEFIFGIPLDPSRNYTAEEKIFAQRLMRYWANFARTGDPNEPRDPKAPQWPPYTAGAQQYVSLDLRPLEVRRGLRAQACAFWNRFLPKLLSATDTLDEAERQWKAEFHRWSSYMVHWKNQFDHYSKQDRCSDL
Description: Inhibition of human AChE using acetylthiocholine iodide as substrate assessed as residual activity at 10 uM preincubated for 5 mins followed by substrate addition and measured for 1 min by Ellman's assay relative to control

Cholinesterase [4] = target: T1, Cholinesterase
Description: Inhibition of human BChE using butyrylthiocholine iodide as substrate preincubated for 5 mins followed by substrate addition and measured for 1 min by Ellman's assay

[5] = Metal chelating activity of the compound assessed as Mn2+-compound complex formation at 30 uM after 5 mins by UV-vis spectrophotometric analysis
SH-SY5Y [6] = test: Neuroprotection activity against amyloid beta (1 to 42)-induced toxicity in human SH-SY5Y cells at 1 uM preincubated with amyloid beta (1 to 42) for 24 hrs followed by cell addition and measured after 48 hrs by MTS assay; assay type: functional, cell-based
[7] = Metal chelating activity of the compound assessed as Ni2+-compound complex formation at 30 uM after 5 mins by UV-vis spectrophotometric analysis
[8] = Metal chelating activity of the compound assessed as Cu2+-compound complex formation at 30 uM after 5 mins by UV-vis spectrophotometric analysis
[9] = Permeability across apical to basolateral side in human Caco2 cells at 100 uM after 20 mins by HPLC-UV analysis; assay type: ADME, cell-based; conditions: Caco-2
SH-SY5Y [10] = test: Inhibition of H2O2-induced ROS generation in human SH-SY5Y cells at 5 uM preincubated for 30 mins followed by H2O2 addition and measured after 90 mins by DCFH-DA staining-based fluorescence assay; assay type: functional, cell-based
[11] = Metal chelating activity of the compound assessed as Mg2+-compound complex formation at 30 uM after 5 mins by UV-vis spectrophotometric analysis
[12] = Metal chelating activity of the compound assessed as Ca2+-compound complex formation at 30 uM after 5 mins by UV-vis spectrophotometric analysis
[13] = Metal chelating activity of the compound assessed as Zn2+-compound complex formation at 30 uM after 5 mins by UV-vis spectrophotometric analysis
[14] = Metal chelating activity of the compound assessed as Fe2+-compound complex formation at 30 uM after 5 mins by UV-vis spectrophotometric analysis
[15] = Cytotoxicity against human SH-SY5Y cells after 48 hrs by MTS assay; assay type: cell-based; conditions: read-out: LD50
[16] = Metal chelating activity of the compound assessed as Co2+-compound complex formation at 30 uM after 5 mins by UV-vis spectrophotometric analysis
[17] = Permeability across basolateral to apical side in human Caco2 cells at 100 uM after 20 mins by HPLC-UV analysis; assay type: ADME, cell-based; conditions: Caco-2
[18] = Metal chelating activity of the compound assessed as Al3+-compound complex formation at 30 uM after 5 mins by UV-vis spectrophotometric analysis
human recombinant BChE = test: Selectivity index, ratio of LD50 for human SH-SY5Y cells to IC50 for human recombinant BChE; assay type: toxicity; conditions: read-out: Ratio LD50/IC50
Cholinesterase [19] = target: T1, Cholinesterase; test: Competitive inhibition of human BChE using butyrylthiocholine iodide as substrate preincubated for 5 mins followed by substrate addition and measured for 1 min by Lineweaver Burk plot analysis
[20] = Efflux ratio of permeability from basolateral to apical over apical to basolateral side in human Caco2 cells at 100 uM after 20 mins by HPLC-UV analysis; assay type: ADME, cell-based; conditions: Caco-2

Structure (SMILES)	activity at 1 min, 10 µM [3] [%]	IC50 (Cholinesterase [4]) [µM]	further results
CC(=O)NC1=NN(C(C)=O)C(C)(c2ccccc2)S1 (centres undefined)	–	–	IC50 (Cholinesterase [1]): 0.0049 µM
Oc1cccc2cccnc12	–	–	Activity [2]: Active
CN(C)CCN(CC1CCCN(C2Cc3ccccc3C2)C1)C(=O)[C@@H]1N=C(c2ccccc2O)CS1 (mixture of isomers)	72.9	0.229	–
CN(C)CCN(CC1CCCN(C2Cc3ccccc3C2)C1)C(=O)c1csc(Nc2ccccn2)n1 (racemic)	> 80	0.635	–
CN(C)CCN(CC1CCCN(Cc2csc(Nc3ccccn3)n2)C1)C(=O)c1ccc2ccccc2c1 (racemic)	> 80	0.103	–
COCCN(CC1CCCN(C2Cc3ccccc3C2)C1)C(=O)c1ccc2cccnc2c1O (racemic)	> 80	0.266	–
COc1ccc(C(=O)N(CCN(C)C)CC2CCCN(C3Cc4ccccc4C3)C2)cc1 (racemic)	> 80	0.237	–
Cc1c(C)c2c(c(C)c1O)CCC(C)(C(=O)N(CCN(C)C)CC1CCCN(C3Cc4ccccc4C3)C1)O2 (racemic)	> 80	6.92	–
CN(C)CCN(CC1CCCN(C2Cc3ccccc3C2)C1)C(=O)c1cc2ccccc2oc1=O (racemic)	> 80	0.0095	–
CN(C)CCN(CC1CCCN(C2Cc3ccccc3C2)C1)C(=O)c1ccc2cccnc2c1O (racemic)	> 80	–	Activity [5]: Active; Activity (SH-SY5Y [6]): inactive; Activity [7]: Active; Activity [8]: Active; Papp A→B at 20 min, 100 µM [9]: 15.1 ×10⁻⁶ cm/s; inhibition (SH-SY5Y [10]): Active; Activity [11]: Active; Activity [12]: Active; Activity [13]: Active; Activity [2]: Active; Activity [14]: Active; CC50 at 48 h [15]: 9.55 µM; Activity [16]: Active; Papp B→A at 20 min, 100 µM [17]: 22.8 ×10⁻⁶ cm/s; Activity [18]: Active
CN(C)CCN(CC1CCCN(C2Cc3ccccc3C2)C1)C(=O)c1ccc2c([N+](=O)[O-])ccc(O)c2n1 (racemic)	> 80	1.61	–
CN(C)CCN(CC1CCCN(C2Cc3ccccc3C2)C1)C(=O)c1cccc(O)c1 (racemic)	> 80	2.49	–
CN(C)CCN(CC1CCCN(C2Cc3ccccc3C2)C1)C(=O)c1cn2cccc(O)c2n1 (racemic)	> 80	0.135	–
CN(C)CCN(CC1CCCN(C2Cc3ccccc3C2)C1)C(=O)c1ccc(O)cc1O (racemic)	> 80	0.46	–
CN(C)CCN(CC1CCCN(Cc2ccc3cccc(O)c3n2)C1)C(=O)c1ccc2ccccc2c1 (racemic)	> 80	0.0481	–
CN(C)CCN(CC1CCCN(C2Cc3ccccc3C2)C1)C(=O)/C=C/c1ccc(O)cc1 (racemic)	> 80	0.071	–
CN(C)CCN(CC1CCCN(C2Cc3ccccc3C2)C1)C(=O)c1cc([N+](=O)[O-])c2cccnc2c1O (racemic)	> 80	0.028	–
CN(C)CCN(CC1CCCN(C2Cc3ccccc3C2)C1)C(=O)c1cc(O)c2cccc(O)c2n1 (racemic)	> 80	0.019	–
CN(C)CCN(CC1CCCN(C2Cc3ccccc3C2)C1)C(=O)c1ccc(O)nc1 (racemic)	> 80	21	–
CN(C)CCN(CC1CCCN(C2Cc3ccccc3C2)C1)C(=O)c1ccc2cccc(O)c2n1 (racemic)	75.8	0.0111	Activity (SH-SY5Y [6]): Active; selectivity ratio (human recombinant BChE): > 700; Activity [7]: Active; Activity [8]: Active; Ki (Cholinesterase [19]): 0.00109 µM; Papp A→B at 20 min, 100 µM [9]: 21.5 ×10⁻⁶ cm/s; efflux ratio at 20 min, 100 µM [20]: 1.6; inhibition (SH-SY5Y [10]): Active; Activity [13]: Active; Activity [2]: Active; Activity [14]: Active; CC50 at 48 h [15]: 9.7 µM; Activity [16]: Active; Papp B→A at 20 min, 100 µM [17]: 35.1 ×10⁻⁶ cm/s; Activity [18]: Active
CN(C)CCN(CC1CCCN(C2Cc3ccccc3C2)C1)C(=O)c1ccc(O)cc1 (racemic)	> 80	1.79	–
